What was measured:
migraine = details: in vivo; cited from earlier work
rabbit saphenous vein [1] = details: EC50 divided by %max KCl
rabbit saphenous vein [2] = experiment: cells; details: Oryctolagus cuniculus, read-out: saphenous vein contraction EC50

SMILES | efficacy in acute treatment of migraine (migraine) | corrected vasoconstriction EC50 (rabbit saphenous vein [1]) [nM] | EC50 (rabbit saphenous vein [2]) [nM]
CN1CCC(c2c[nH]c3ccc(NC(=O)c4ccc(F)cc4)cc23)CC1 [LY334370] | proved effective | – | –
CNS(=O)(=O)Cc1ccc2[nH]cc(CCN(C)C)c2c1 [sumatriptan] | – | 10.3 | 660
